Measured values published in US7935708B2, “Dihydropyrazolopyrimidinone derivatives” (MSD K.K., priority 2006, dated 2011).

How the values were obtained:
[1] = test system: Cdc2 (Cdk1) tyrosine 15 phosphorylation in NCI-H1299 cells; experiment: Cdc2 (Cdk1) tyrosine 15-phosphorylation-inhibitory effect in camptothecin-treated NCI-H1299 cells (ELISA); format: cell-based; conditions: Homo sapiens, camptothecin 200 nM 16 hours, then test compound with nocodazole 8 hours, read-out: Cdc2-Y15 Phosphorylation-Inhibitory Effect (H1299, + camptothecin) (EC50)
Source text: (§1) Pharmaceutical Text 2 (Method of Determining Drug Potency in Cells (Cdc2 (Cdk1) Tyrosine 15-Phosphorylation-Inhibitory Effect))
(§2) Fetal bovine serum (FBS) was obtained from Morgate; media RPMI1640 and DMEM were from Invitrogen; camptothecin was from Sigma; gemcitabine was from Nippon Eli Lilly; nocodazole and protease inhibitor cocktail were from Sigma; rabbit anti-Cdc2 antibody and mouse anti-Cdc2 antibody were from Santa Cruz Biotechnology; rabbit anti-tyrosine 15-phosphorylated Cdc2 antibody and horseradish peroxidase-labeled anti-mouse IgG antibody were from Cell Signaling Technology; sure blue reserve TMB peroxidase substrate was from Kirkegaard and Perry Laboratories.
(§3) Human non-small cell lung cancer cells (NCI-H1299) and human colon cancer cells (WiDr) were obtained from American Type Culture Collection (ATCC).
(§4) c) Method of Effect Determination:
In the method of using NCI-H1299 cells, the cells were suspended in RPMI1640 containing 10% FBS, and the cell suspension was applied to a 96-well Nunclondelta-processed plastic plate (bought from Nunc), in an amount of 2000 cells/100 μL/well, in which the cells were incubated overnight in 5% CO2-95% air at 37° C. Camptothecin was dissolved in dimethylsulfoxide (DMSO), and diluted with RPMI1640 containing 10% FBS, and then this was applied to the plate on which the cells had been previously sowed, in an amount of 50 μL/well in such a manner that the final concentration of camptothecin could be 200 nM. Then, the cells were incubated for 16 hours at 37° C. in 5% CO2-95% air. The test compound was stepwise diluted with DMSO, then diluted with 4000 nM nocodazole-containing RPMI1640 containing 10% FBS, and applied to the plate on which the camptothecin-treated cells had been sowed, in an amount of 50 μL/well. The cells were incubated for 8 hours at 37° C. in 5% CO2-95% air, then the medium was removed, and a cytolytic buffer was added to the plate in an amount of 100 μL/well, shaken at 4° C. for 2 hours, then frozen at −80° C., and melted to give a cell solution. Cdc2 and tyrosine 15-phosphorylated Cdc2 in the cell solution were determined through enzyme-linked immunosorbent assay (ELISA), and the ratio of tyrosine 15-phosphorylated Cdc2 to Cdc2 was calculated to obtain the 50% phosphorylation-inhibitory concentration of the test compound to the cells (EC50, nM). The cytolytic buffer used herein is an aqueous solution containing 20 mM Hepes (pH 7.5), 150 mM sodium chloride, 1 mM disodium ethylenediaminetetraacetate, 0.1% polyoxyethylene (10) octylphenyl ether, 1% protease inhibitor cocktail, 1 mM dithiothreitol, 2 mM sodium orthovanadate, 10 mM sodium fluoride and 10 mM glycerol diphosphate. Cdc2 was determined through ELISA as follows: A rabbit anti-Cdc2 antibody solution, which had been diluted 200-fold with 50 mM carbonate-bicarbonate buffer (pH 9.6), was applied to a 96-well maxisorpimmuno plate (bought from Nunc), in an amount of 50 μL/well, and statically kept overnight at 4° C. so as to fix the antibody on the plate. Next, this was washed three times with phosphate-buffered saline (PBS), and 5% bovine serum albumin-containing PBS (5% BSA/PBS) was added thereto in an amount of 300 μL/well, and statically kept at room temperature for 2 hours, and then again washed three times with PBS. A mouse anti-Cdc2 antibody solution that had been diluted 100-fold with 0.05% polyoxyethylene sorbitan monolaurate and 1% BSA-containing Tris-HCl-buffered saline (1% BSA/TBS-T) was added to it in an amount of 50 μL/well, and the cell solution was added thereto in an amount of 5 μL/well and statically kept overnight at 4° C. Next, this was washed three times with 0.05% polyoxyethylene sorbitan monolaurate and 0.1% BSA-containing Tris-HCl-buffered saline (0.1% BSA/TBS-T), and then a horseradish peroxidase-labeled anti-mouse IgG antibody solution that had been diluted 2000-fold with 1% BSA/TBS-T was added thereto in an amount of 70 μL/well, and statically kept at room temperature for 3 hours. […]

[2] = test system: Cdc2 (Cdk1) tyrosine 15 phosphorylation in WiDr cells; experiment: Cdc2 (Cdk1) tyrosine 15-phosphorylation-inhibitory effect in gemcitabine-treated WiDr cells (ELISA); format: cell-based; conditions: Homo sapiens, gemcitabine 100 nM 24 hours, then test compound with nocodazole 8 hours, read-out: Cdc2-Y15 Phosphorylation-Inhibitory Effect (WiDr, + gemcitabine) (EC50)
Source text: as §1, §2, §3, §4
In the method of using WiDr cells, the cells were suspended in DMEM containing 10% FBS, and the cell suspension was applied to a 96-well Nunclondelta-processed plastic plate in an amount of 2000 cells/100 μL/well, in which the cells were incubated overnight in 5% CO2-95% air at 37° C. Gemcitabine was dissolved in PBS, and diluted with DMEM containing 10% FBS, and then this was applied to the plate on which the cells had been previously sowed, in an amount of 50 μL/well in such a manner that the final concentration of gemcitabine could be 100 nM. Then, the cells were incubated for 24 hours at 37° C. in 5% CO2-95% air. The test compound was stepwise diluted with DMSO, then diluted with 1200 nM nocodazole-containing DMEM containing 10% FBS, and applied to the plate on which the gemcitabine-treated cells had been sowed, in an amount of 50 μL/well. The cells were incubated for 8 hours at 37° C. in 5% CO2-95% air, then the culture was removed, and a cytolytic buffer was added to the plate in an amount of 100 μL/well, shaken at 4° C. for 2 hours, then frozen at −80° C., and melted to give a cell solution. Cdc2 and tyrosine 15-phosphorylated Cdc2 in the cell solution were determined through ELISA, and the ratio of tyrosine 15-phosphorylated Cdc2 to Cdc2 was calculated to obtain the 50% phosphorylation-inhibitory concentration of the test compound to the cells (EC50, nM). Cdc2 was determined through ELISA as follows: A rabbit anti-Cdc2 antibody solution, which had been diluted 200-fold with 50 mM carbonate-bicarbonate buffer (pH 9.6), was applied to a 96-well maxisorp plastic plate in an amount of 50 μL/well, and statically kept overnight at 4° C. so as to fix the antibody on the plate. Next, this was washed three times with PBS, and 5% BSA/PBS was added thereto in an amount of 300 μL/well, and statically kept at room temperature for 2 hours, and then again washed three times with PBS. A mouse anti-Cdc2 antibody solution that had been diluted 100-fold with 1% BSA/TBS-T was added to it in an amount of 50 μL/well, and the cell solution was added thereto in an amount of 10 μL/well and statically kept overnight at 4° C. Next, this was washed three times with 0.1% BSA/TBS-T, and then a horseradish peroxidase-labeled anti-mouse IgG antibody solution that had been diluted 2000-fold with 1% BSA/TBS-T was added thereto in an amount of 70 μL/well, and statically kept at room temperature for 3 hours. Finally, this was washed five times with 0.1% BSA/TBS-T, then a substrate of sure blue reserve TMB peroxidase was added to it in an amount of 100 μL/well, and left for coloration in a dark place at room temperature for 15 minutes. Then, 1 M hydrochloric acid was added to it in an amount of 100 μL/well to stop the reaction, and this was analyzed through colorimetry. […]

Structure (SMILES) | EC50 [1] [nM] | EC50 [2] [nM]
C=CCn1c(=O)c2cnc(Nc3ccc(N4CCN(C)CC4)cc3)nc2n1-c1cccc(C(C)(C)O)c1 [Example 19, 2-allyl-1-[3-(1-hydroxy-1-methylethyl)phenyl]-6-{[4-(4-methylpiperazin-1-yl)phenyl]amino}-1,2-dihydro-3H-pyrazolo[3,4-d]pyrimidin-3-one] | 247 | 350
C=CCn1c(=O)c2cnc(Nc3ccc(N4CCN(C)CC4)cc3)nc2n1-c1cccc(CN(C)C)c1 [Example 26, 2-allyl-1-[3-(dimethylaminomethyl)phenyl]-6-{[4-(4-methylpiperazin-1-yl)phenyl]amino}-1,2-dihydro-3H-pyrazolo[3,4-d]pyrimidin-3-one] | 114 | 
C=CCn1c(=O)c2cnc(Nc3ccc(N4CCN(C)CC4)c(CO)c3)nc2n1-c1ccccn1 [Example 29, 2-allyl-6-{[3-hydroxymethyl-4-(4-methylpiperazin-1-yl)phenyl]amino}-1-pyridin-2-yl-1,2-dihydro-3H-pyrazolo[3,4-d]pyrimidin-3-one] | 188 | 
C#CCn1c(=O)c2cnc(Nc3ccc(N4CCN(C)CC4)cc3)nc2n1-c1cccc(C(C)(C)O)n1 [Example 113, 1-[6-(1-hydroxy-1-methylethyl)pyridin-2-yl]-6-{[4-(4-methylpiperazin-1-yl)phenyl]amino}-2-(2-propynyl)-1,2-dihydro-3H-pyrazolo[3,4-d]pyrimidin-3-one] |  | 8

More lines, now with the values ahead:

EC50 [1] [nM] | EC50 [2] [nM] | Structure (SMILES)
104 | 143 | C=CCn1c(=O)c2cnc(Nc3ccc(N4CCN(C)CC4)cc3)nc2n1-c1cccc(C(=O)N(C)C)c1 [Example 1, 3-(2-allyl-6-{[4-(4-methylpiperazin-1-yl)phenyl]amino}-3-oxo-1,2-dihydro-3H-pyrazolo[3,4-d]pyrimidin-1-yl)-N,N-dimethylbenzamide]
46 |  | C=CCn1c(=O)c2cnc(Nc3ccc(N4CCN(C)CC4)c(C)c3)nc2n1-c1cccc(CN(C)C)n1 [Example 52, 2-allyl-1-{6-[(dimethylamino)methyl]pyridin-2-yl}-6-{[3-methyl-4-(4-methylpiperazin-1-yl)phenyl]amino}-1,2-dihydro-3H-pyrazolo[3,4-d]pyrimidin-3-one]
83 | 39 | C=CCn1c(=O)c2cnc(Nc3ccc(N4CCN(C)CC4)c(C)c3)nc2n1-c1cccc(OCCO)n1 [Example 98, 2-allyl-1-[6-(2-hydroxyethoxy)pyridin-2-yl]-6-{[3-methyl-4-(4-methylpiperazin-1-yl)phenyl]amino}-1,2-dihydro-3H-pyrazolo[3,4-d]pyrimidin-3-one]
86 | 122 | C=CCn1c(=O)c2cnc(Nc3ccc(N4CCN(C)CC4)cc3)nc2n1-c1cccc(CN(C)S(C)(=O)=O)n1 [Example 99, N-{[6-(2-allyl-6-{[4-(4-methylpiperazin-1-yl)phenyl]amino}-3-oxo-1,2-dihydro-3H-pyrazolo[3,4-d]pyrimidin-1-yl)pyridin-2-yl]methyl}-N-methylmethanesulfonamide]
93 |  | Cc1cc(Nc2ncc3c(=O)n(Cc4ccccc4)n(-c4ccccc4)c3n2)ccc1N1CCN(C)CC1 [Example 111, 2-benzyl-6-{[3-methyl-4-(4-methylpiperazin-1-yl)phenyl]amino}-1-phenyl-1,2-dihydro-3H-pyrazolo[3,4-d]pyrimidin-3-one]
